Measurements taken from US9745551B2, “Mesenchymal-like stem cells derived from human embryonic stem cells, methods and uses thereof” (IMSTEM BIOTECHNOLOGY, INC., priority 2012, dated 2017).

Tested on: hES cells
Assay: Embryoid body (EB) and hemangioblast formation from hESC cultured with BIO
Assay type: cell-based, human
Procedure: Four hESC cell lines were used: H9 (derived from WiCell Research Institute) (Thomson et al. (1998)); CT2 (derived from University of Connecticut Stem Cell Core (Lin et al. (2010)); MA09 (an FDA approved, clinical-grade cell line derived at Advanced Cell Technology, Inc.) (Klimanskaya et al. (2006)); and ES03-Envy (Envy, a GFP-labeled line, derived at ES International) (Costa et al. (2005)). These cell lines were cultured on Matrigel (BD Biosciences, San Jose, Calif.) and cultured in TeSR1 medium, (Stem Cell Technologies, Vancouver, Canada), with or without adding of 0.05-0.2 μM of BIO (6-Bromoindirubin-3′-oxime (CAS 667463-62-9)).
hESC cells were then differentiated into EB cells and then enriched for HB as previously described (Lu et al. (2008); Lu et al. (2007)). 50-80% confluent hEs cell on the Matrigel plate were digested with Dispase (1 mg/ml for 5 to 10 minutes) and then washed with EB formation basal medium, HPGM (Lonza, Walksville, Md.), or STEMLINE I/II Hematopoietic Stell Cell Expansion Medium (Sigma, St. Louis, Mo.), or StemSpan H3000 (Stem Cell Technologies, Vancouver, Canada), or IMDM with 10% FBS, or DMEDM/F12 with 10% FBS. Cells were then cultured in EB formation medium supplemented with 50 ng/ml of VEGF (Peprotech) and 50 ng/ml of BMP4 (Stemgent) for 48 hours on ultra-low plate at a density of about 2-3 million cells/ml. After 48 hours, half the culture medium was replaced with fresh EB formation medium plus 25-50 ng/ml of bFGF.
Four days later, EB cells formed in the medium were harvested and dissociated into single cells with TrypLE (Invitrogen) at 37° C. for 2-3 minutes. Cells were washed and resuspended at 1-5 million cells/ml in EB formation basal medium. The single cell suspension were then mixed at 1:10 with Hemangioblast Growth Medium (Stem Cell Technologies, Vancouver, Canada). […]

SMILES: O=C1Nc2cc(Br)ccc2/C1=C1/Nc2ccccc2/C1=N\O [BIO, (2′Z,3′E)-6-Bromoindirubin-3′-oxime]
- size and yield of the EB culture (BIO in the mTesr1 medium): increase
- total EB number increase (BIO in the mTesr1 medium): 3 folds
- percentage of CD45 cell differentiation (indicator of hemangioblast differentiation efficiency) (BIO treatment compared to traditional mTesr1 medium): tripled
